Blank lines part the entries; values can stand above or below the compound they belong to.
Assays:
[1] = molecular target: T1, Fatty acid-binding protein, liver (Homo sapiens, UniProt P07148); experiment: Displacement of 8-anilino-1-naphthalene-sulfonic acid from FABP1 (unknown origin) incubated for 3 mins by fluorescence based assay
T1 sequence (P07148 whole entry): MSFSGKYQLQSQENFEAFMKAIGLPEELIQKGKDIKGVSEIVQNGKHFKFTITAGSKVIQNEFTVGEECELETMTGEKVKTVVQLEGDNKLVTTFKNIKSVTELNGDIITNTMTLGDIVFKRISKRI

[2] = Metabolic stability in Sprague-Dawley rat liver microsomes assessed as parent compound remaining incubated for 1 hr by LC-MS analysis; type: ADME, Microsome; conditions: read-out: Stability
[3] = Metabolic stability in mouse liver microsomes assessed as parent compound remaining incubated for 1 hr by LC-MS analysis; type: ADME, Microsome; conditions: read-out: Stability
Bile acid receptor [4] = molecular target: T2, Bile acid receptor (Homo sapiens, UniProt Q96RI1); experiment: Agonist activity at FXR-LBD (unknown origin) using fluorescein-coactivator peptide incubated for 3 hrs by TR-FRET assay
T2 sequence (Q96RI1 whole entry): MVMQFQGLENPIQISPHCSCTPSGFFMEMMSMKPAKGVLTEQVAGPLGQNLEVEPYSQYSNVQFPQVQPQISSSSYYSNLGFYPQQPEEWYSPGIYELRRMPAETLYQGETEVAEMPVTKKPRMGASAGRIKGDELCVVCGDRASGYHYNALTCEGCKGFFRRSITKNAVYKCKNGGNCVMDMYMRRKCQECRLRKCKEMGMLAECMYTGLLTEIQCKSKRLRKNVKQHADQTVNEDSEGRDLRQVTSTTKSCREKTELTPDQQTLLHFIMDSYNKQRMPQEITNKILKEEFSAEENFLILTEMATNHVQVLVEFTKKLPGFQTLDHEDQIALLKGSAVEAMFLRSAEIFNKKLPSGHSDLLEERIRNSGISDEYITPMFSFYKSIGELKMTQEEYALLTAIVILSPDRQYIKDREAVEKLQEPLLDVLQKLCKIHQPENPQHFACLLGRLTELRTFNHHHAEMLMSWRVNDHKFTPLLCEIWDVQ

[5] = molecular target: T3, Fatty acid-binding protein, liver (Homo sapiens) (UniProt P07148); experiment: Displacement of 8-anilino-1-naphthalene-sulfonic acid from FABP1 (unknown origin) at 10 uM incubated for 3 mins by fluorescence based assay relative to control
T3 sequence (whole entry): T1 sequence (P07148 whole entry)

Bile acid receptor [6] = molecular target: T2, Bile acid receptor; experiment: Agonist activity at FXR (unknown origin) expressed in human HepG2 cells co-transfected with human RXR assessed as luciferase activity incubated for 24 hrs by cell-based luciferase assay
[7] = molecular target: T4, Peroxisome proliferator-activated receptor gamma (Homo sapiens, UniProt P37231); experiment: Inhibition of PPARgamma (unknown origin) transfected in HEK293 cells incubated for 18 hrs in presence of rosiglitazone by dual luciferase reporter assay; type: cell-based
T4 sequence (P37231 whole entry): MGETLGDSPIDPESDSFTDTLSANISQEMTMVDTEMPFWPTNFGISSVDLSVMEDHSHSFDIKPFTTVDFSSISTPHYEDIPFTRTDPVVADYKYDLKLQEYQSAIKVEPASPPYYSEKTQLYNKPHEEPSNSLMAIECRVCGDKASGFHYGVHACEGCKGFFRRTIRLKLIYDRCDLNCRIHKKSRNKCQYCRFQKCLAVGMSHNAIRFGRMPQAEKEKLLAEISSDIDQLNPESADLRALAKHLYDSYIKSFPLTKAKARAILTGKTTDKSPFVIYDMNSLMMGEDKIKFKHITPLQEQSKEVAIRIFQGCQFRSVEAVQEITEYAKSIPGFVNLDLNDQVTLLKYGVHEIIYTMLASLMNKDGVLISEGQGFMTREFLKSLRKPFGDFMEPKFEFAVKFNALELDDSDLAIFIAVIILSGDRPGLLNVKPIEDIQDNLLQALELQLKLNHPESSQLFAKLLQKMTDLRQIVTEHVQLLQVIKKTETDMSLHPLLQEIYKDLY

[8] = Inhibition of PPARbeta/delta (unknown origin) transfected in HepG2 cells incubated for 18 hrs in presence of GW0742 by dual luciferase reporter assay; conditions: Homo sapiens, HepG2, 18 h
[9] = molecular target: Thyroid hormone receptor beta (Homo sapiens, UniProt P10828); experiment: Activation of pGAL4 fused THRbeta LBD (unknown origin) transfected in HEK293 cells cotransfected with pG5-Luc and pRL-TK incubated for 24 hrs by Renilla/Firefly based dual-glo luciferase assay; type: cell-based
Chain of Thyroid hormone receptor beta (P10828 whole entry, the tested form may be a part): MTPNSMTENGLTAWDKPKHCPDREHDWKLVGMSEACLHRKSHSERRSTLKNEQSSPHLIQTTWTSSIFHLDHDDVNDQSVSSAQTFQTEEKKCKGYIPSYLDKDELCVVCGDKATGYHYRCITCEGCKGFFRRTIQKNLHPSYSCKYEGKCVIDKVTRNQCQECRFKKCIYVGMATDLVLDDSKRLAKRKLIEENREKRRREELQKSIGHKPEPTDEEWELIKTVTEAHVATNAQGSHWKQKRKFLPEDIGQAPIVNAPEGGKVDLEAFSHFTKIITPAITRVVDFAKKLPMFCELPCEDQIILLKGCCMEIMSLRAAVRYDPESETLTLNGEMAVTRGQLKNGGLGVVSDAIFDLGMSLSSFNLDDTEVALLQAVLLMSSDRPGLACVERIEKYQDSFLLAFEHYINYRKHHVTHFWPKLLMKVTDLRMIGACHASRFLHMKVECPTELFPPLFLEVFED

[10] = molecular target: Oxysterols receptor LXR-beta (Homo sapiens, UniProt P55055); experiment: Inhibition of Gal-DBD and NHRLBD fused LXRbeta (unknown origin) transfected in African green monkey CV-1 cells by luciferase assay; type: cell-based
Chain of Oxysterols receptor LXR-beta (P55055 whole entry, the tested form may be a part): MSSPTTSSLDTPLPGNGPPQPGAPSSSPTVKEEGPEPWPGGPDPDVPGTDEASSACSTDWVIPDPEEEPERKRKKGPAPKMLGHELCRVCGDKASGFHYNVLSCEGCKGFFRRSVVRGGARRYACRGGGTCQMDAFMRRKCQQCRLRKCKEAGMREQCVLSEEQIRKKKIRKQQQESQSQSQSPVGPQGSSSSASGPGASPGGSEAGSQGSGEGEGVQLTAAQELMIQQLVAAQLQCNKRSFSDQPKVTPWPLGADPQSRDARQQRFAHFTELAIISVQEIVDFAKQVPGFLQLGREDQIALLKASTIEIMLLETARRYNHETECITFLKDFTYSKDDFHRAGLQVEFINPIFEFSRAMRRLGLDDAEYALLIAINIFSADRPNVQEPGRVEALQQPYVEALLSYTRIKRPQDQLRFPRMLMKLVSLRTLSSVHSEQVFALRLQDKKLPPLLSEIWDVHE

[11] = molecular target: Oxysterols receptor LXR-alpha (Homo sapiens, UniProt Q13133); experiment: Inhibition of Gal-DBD and NHRLBD fused LXRalpha (unknown origin) transfected in African green monkey CV-1 cells by luciferase assay; type: cell-based
Chain of Oxysterols receptor LXR-alpha (Q13133 whole entry, the tested form may be a part): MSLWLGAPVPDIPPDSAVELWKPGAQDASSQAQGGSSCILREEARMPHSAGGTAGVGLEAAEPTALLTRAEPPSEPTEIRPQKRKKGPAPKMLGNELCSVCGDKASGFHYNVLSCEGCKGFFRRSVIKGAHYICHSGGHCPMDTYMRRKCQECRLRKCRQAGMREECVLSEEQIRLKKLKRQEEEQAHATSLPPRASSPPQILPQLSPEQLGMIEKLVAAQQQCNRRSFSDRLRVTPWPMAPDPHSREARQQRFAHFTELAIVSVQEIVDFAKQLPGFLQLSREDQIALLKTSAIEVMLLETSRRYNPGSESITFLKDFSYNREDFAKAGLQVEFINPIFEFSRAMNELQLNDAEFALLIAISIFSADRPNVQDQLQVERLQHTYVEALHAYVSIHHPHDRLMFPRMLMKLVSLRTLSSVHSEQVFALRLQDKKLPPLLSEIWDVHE

[12] = molecular target: T5, Peroxisome proliferator-activated receptor alpha (Homo sapiens, UniProt Q07869); experiment: Inhibition of pBIND-PPARalpha (unknown origin) transfected in HepG2 cells incubated for 18 hrs in presence of […] by dual luciferase reporter assay; type: cell-based
T5 sequence (Q07869 whole entry): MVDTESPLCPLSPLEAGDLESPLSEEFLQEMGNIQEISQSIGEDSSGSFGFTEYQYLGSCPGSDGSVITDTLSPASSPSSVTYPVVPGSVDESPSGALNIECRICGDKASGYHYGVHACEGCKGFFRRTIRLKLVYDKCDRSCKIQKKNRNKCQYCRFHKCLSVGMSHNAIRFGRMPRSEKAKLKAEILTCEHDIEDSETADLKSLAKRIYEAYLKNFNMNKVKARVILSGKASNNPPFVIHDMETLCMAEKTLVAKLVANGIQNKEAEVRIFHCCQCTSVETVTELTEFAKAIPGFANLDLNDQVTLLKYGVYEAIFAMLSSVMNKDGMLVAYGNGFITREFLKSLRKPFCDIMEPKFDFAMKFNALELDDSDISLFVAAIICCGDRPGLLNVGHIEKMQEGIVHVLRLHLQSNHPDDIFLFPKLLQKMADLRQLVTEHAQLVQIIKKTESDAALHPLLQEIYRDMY

[13] = Metabolic stability in human liver microsomes assessed as parent compound remaining incubated for 1 hr by LC-MS analysis; type: ADME, Microsome; conditions: read-out: Stability
[14] = Drug concentration in C57BL/6 mouse plasma at 20 mg/kg, po administered for 5 days and measured after 1 hr post final dose by LC-MS analysis; type: ADME, organism-based; conditions: time 5 day
[15] = molecular target: Fatty acid-binding protein, adipocyte (Homo sapiens, UniProt P15090); experiment: Displacement of 8-anilino-1-naphthalene-sulfonic acid from FABP4 (unknown origin) incubated for 3 mins by fluorescence based assay
Chain of Fatty acid-binding protein, adipocyte (P15090 whole entry): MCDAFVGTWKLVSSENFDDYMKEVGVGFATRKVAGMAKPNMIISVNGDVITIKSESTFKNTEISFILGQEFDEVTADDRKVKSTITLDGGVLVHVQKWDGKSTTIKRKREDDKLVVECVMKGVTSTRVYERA

[16] = molecular target: Fatty acid-binding protein, heart (Homo sapiens, UniProt P05413); experiment: Displacement of 8-anilino-1-naphthalene-sulfonic acid from FABP3 (unknown origin) incubated for 3 mins by fluorescence based assay
Chain of Fatty acid-binding protein, heart (P05413 whole entry, the tested form may be a part): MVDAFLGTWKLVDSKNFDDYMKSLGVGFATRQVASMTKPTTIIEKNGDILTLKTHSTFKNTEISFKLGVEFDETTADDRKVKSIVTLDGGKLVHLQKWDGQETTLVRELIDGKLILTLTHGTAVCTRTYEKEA

[17] = molecular target: Retinoic acid receptor alpha (Homo sapiens, UniProt P10276); experiment: Activation of Gal-DBD and NHRLBD fused RARalpha (unknown origin) transfected in African green monkey CV-1 cells by luciferase reporter assay; type: cell-based
[18] = molecular target: G-protein coupled bile acid receptor 1 (Homo sapiens, UniProt Q8TDU6); experiment: Activation of TGR5 (unknown origin) transfected in human NCI-H716 cells assessed as increase in cAMP production incubated for 24 hrs by HTR-FRET assay; type: functional, cell-based
[19] = molecular target: Retinoic acid receptor gamma (Homo sapiens, UniProt P13631); experiment: Activation of Gal-DBD and NHRLBD fused RARgamma (unknown origin) transfected in African green monkey CV-1 cells by luciferase reporter assay; type: cell-based
Chain of Retinoic acid receptor gamma (P13631 whole entry, the tested form may be a part): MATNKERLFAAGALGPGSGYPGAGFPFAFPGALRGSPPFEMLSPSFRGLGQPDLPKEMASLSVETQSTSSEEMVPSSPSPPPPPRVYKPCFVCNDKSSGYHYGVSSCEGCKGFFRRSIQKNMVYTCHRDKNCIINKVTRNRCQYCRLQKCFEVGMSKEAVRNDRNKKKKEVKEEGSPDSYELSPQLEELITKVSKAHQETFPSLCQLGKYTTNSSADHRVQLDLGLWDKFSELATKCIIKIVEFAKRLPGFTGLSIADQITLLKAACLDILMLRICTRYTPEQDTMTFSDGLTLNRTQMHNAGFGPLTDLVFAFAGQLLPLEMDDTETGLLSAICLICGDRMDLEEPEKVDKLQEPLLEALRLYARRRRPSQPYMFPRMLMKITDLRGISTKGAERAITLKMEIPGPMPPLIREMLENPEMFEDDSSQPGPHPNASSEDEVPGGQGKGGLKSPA

Androgen receptor = Androgen receptor (Homo sapiens, UniProt P10275); experiment: Activation of Gal-DBD and NHRLBD fused AR (unknown origin) transfected in African green monkey CV-1 cells by luciferase reporter assay; type: cell-based
Chain of Androgen receptor (P10275 whole entry, the tested form may be a part): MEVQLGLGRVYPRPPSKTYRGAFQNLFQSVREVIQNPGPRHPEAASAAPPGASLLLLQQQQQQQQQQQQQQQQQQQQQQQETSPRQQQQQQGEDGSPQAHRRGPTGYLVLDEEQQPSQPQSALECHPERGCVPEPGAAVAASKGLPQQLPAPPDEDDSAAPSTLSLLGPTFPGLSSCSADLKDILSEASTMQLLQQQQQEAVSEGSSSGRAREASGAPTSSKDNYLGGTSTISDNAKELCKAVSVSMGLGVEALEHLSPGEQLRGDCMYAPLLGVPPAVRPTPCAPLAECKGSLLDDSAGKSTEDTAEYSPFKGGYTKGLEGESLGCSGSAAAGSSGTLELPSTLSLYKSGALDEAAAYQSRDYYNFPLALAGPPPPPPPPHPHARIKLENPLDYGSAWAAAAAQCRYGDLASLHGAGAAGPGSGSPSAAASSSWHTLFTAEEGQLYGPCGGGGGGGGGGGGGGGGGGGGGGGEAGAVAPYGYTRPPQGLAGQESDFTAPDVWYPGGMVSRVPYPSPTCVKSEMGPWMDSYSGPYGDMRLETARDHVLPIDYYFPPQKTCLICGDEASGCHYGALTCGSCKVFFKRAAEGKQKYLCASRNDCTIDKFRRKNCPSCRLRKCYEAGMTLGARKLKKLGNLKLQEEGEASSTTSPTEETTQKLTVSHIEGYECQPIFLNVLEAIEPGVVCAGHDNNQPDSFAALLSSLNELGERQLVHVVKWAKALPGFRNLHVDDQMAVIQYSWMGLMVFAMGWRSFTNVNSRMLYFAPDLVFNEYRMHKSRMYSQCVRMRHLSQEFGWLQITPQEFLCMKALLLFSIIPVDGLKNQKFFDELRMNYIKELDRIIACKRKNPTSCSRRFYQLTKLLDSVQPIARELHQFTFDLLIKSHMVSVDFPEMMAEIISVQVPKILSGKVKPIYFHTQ

[20] = Drug concentration in C57BL/6 mouse liver at 20 mg/kg, po administered for 5 days and measured after 1 hr post final dose by LC-MS analysis; type: ADME, organism-based; conditions: time 5 day, read-out: Ct
[21] = molecular target: Mineralocorticoid receptor (Homo sapiens, UniProt P08235); experiment: Activation of Gal-DBD and NHRLBD fused MR (unknown origin) transfected in African green monkey CV-1 cells by luciferase reporter assay; type: cell-based
Chain of Mineralocorticoid receptor (P08235 whole entry, the tested form may be a part): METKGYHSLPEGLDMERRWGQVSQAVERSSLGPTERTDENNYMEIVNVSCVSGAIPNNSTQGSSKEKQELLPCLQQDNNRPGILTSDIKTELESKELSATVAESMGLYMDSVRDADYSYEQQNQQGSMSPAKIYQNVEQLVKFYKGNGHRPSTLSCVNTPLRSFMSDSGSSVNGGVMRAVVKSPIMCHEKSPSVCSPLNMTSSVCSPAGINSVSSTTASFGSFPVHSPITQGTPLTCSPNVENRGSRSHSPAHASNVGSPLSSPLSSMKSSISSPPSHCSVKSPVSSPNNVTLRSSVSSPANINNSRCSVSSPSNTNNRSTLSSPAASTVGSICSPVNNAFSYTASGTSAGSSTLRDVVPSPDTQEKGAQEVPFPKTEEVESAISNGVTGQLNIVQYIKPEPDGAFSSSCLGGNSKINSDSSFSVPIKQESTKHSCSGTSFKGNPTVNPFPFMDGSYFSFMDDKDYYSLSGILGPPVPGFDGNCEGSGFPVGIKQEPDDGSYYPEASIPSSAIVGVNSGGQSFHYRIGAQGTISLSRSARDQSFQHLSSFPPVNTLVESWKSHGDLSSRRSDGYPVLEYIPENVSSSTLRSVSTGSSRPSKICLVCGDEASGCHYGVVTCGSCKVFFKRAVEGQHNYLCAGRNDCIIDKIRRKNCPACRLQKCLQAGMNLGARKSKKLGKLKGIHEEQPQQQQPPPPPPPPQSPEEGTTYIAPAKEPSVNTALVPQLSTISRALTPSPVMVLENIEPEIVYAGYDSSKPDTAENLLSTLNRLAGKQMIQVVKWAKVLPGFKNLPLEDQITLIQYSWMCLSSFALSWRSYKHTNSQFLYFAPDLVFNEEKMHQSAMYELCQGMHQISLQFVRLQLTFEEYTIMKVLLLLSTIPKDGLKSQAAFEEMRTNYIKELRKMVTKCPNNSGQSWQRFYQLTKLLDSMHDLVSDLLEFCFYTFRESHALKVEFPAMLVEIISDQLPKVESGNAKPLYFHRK

[22] = Drug concentration in C57BL/6 mouse ileum at 20 mg/kg, po administered for 5 days and measured after 1 hr post final dose by LC-MS analysis; type: ADME, organism-based; conditions: time 5 day, read-out: Ct
[23] = Metabolic stability in Beagle dog liver microsomes assessed as parent compound remaining incubated for 1 hr by LC-MS analysis; type: ADME, Canis lupus familiaris, Microsome; conditions: read-out: Stability
[24] = Metabolic stability in rhesus monkey liver microsomes assessed as parent compound remaining incubated for 1 hr by LC-MS analysis; type: ADME, Macaca mulatta, Microsome; conditions: read-out: Stability
Progesterone receptor = Progesterone receptor (Homo sapiens, UniProt P06401); experiment: Activation of Gal-DBD and NHRLBD fused PR (unknown origin) transfected in African green monkey CV-1 cells by luciferase reporter assay; type: cell-based
Chain of Progesterone receptor (P06401 whole entry, the tested form may be a part): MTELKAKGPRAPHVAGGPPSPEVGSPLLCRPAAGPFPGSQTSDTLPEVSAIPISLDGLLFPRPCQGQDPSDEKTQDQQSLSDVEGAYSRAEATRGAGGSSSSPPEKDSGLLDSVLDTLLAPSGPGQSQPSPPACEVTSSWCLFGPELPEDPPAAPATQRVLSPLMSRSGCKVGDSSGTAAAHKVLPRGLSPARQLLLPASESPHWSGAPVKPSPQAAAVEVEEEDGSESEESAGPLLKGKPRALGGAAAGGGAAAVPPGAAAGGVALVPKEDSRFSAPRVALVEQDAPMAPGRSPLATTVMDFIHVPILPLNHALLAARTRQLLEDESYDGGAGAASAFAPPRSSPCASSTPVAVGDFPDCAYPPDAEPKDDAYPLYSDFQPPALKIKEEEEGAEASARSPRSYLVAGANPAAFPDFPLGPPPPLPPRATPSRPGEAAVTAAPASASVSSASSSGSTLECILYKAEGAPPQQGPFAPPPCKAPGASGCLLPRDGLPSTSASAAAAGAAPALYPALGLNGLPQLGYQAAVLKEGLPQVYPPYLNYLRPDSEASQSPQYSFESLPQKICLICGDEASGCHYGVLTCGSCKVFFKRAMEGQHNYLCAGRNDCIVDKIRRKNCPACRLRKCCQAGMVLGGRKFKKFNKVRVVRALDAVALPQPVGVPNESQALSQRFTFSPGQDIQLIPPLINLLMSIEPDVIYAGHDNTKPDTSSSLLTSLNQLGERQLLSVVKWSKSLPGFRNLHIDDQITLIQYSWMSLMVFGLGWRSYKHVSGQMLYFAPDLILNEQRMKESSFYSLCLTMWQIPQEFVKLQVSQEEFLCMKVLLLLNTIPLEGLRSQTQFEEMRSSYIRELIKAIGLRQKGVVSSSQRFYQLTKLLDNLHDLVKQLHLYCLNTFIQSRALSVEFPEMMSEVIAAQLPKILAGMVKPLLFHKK

SMILES: O=C(O)COc1ccc(-c2ccc(OCc3c(-c4c(Cl)cccc4Cl)noc3C3CC3)cc2)cc1
IC50 [1]: 4.2 µM
remaining at 1 h [2]: 68.3%
remaining at 1 h [3]: 56.8%

SMILES: O=C(O)Cc1ccc(-c2cccc(OCc3c(-c4c(Cl)cccc4Cl)noc3C3CC3)c2)cc1
EC50 (Bile acid receptor [4]): > 10 µM
inhibition [5]: 9.5%

SMILES: O=C(O)Cc1ccc(-c2ccc(OCc3c(-c4c(Cl)cccc4Cl)noc3C3CC3)cc2)cc1
remaining at 1 h [13]: 83.6%
IC50 [1]: 2.9 µM
concentration at 120 h [14]: 2530 ng/mL
IC50 [15]: 5.6 µM
IC50 [16]: > 30 µM
EC50 [17]: > 10 µM
remaining at 1 h [2]: 86.8%
EC50 [18]: > 10 µM
EC50 [19]: > 10 µM
EC50 (Androgen receptor): > 10 µM
concentration at 120 h [20]: 718 ng/g
EC50 [21]: > 10 µM
EC50 [10]: > 10 µM
concentration at 120 h [22]: 158 ng/g
remaining at 1 h [23]: 69.1%
EC50 [11]: > 10 µM
remaining at 1 h [24]: 64.5%
remaining at 1 h [3]: 74.3%
EC50 (Progesterone receptor): > 10 µM

SMILES: O=C(O)CCc1ccc(-c2ccc(OCc3c(-c4c(Cl)cccc4Cl)noc3C3CC3)cc2)cc1
IC50 [1]: 1.4 µM
remaining at 1 h [2]: 26.1%
remaining at 1 h [3]: 19.7%

Now from value to compound:

IC50 [1]: 5.7 µM
SMILES: CC(C)(Oc1ccc(-c2ccc(OCc3c(-c4c(Cl)cccc4Cl)noc3C3CC3)cc2)cc1)C(=O)O

EC50 (Bile acid receptor [6]): > 10 µM
EC50 (Bile acid receptor [4]): > 10 µM
IC50 [1]: 4 µM
inhibition [5]: 72.7%
IC50 [7]: > 10 µM
IC50 [8]: > 10 µM
EC50 [9]: > 10 µM
EC50 [10]: > 10 µM
EC50 [11]: > 10 µM
IC50 [12]: > 10 µM
SMILES: CCc1c(-c2ccccc2)c(-c2ccccc2)nn1-c1ccccc1-c1cccc(OCC(=O)O)c1

IC50 [1]: 4.3 µM
SMILES: O=C(O)Cc1ccc(-c2ccc(OCc3c(-c4c(Cl)cccc4Cl)noc3C3CC3)cc2Cl)cc1

IC50 [1]: 15.3 µM
inhibition [5]: 35.2%
SMILES: CC(C)c1onc(-c2c(Cl)cccc2Cl)c1COc1ccc(/C=C/c2cccc(C(=O)O)c2)c(Cl)c1
